Key:
P815 tumor cells = assay: Suppression of tumor growth by immunoadjuvant combination, P815 model; assay type: in vivo, mouse; details: DBA/2 mice with P815 tumor, PIA CTL i.v. Day 7
Excerpt: The following substances were used as adjuvants.
Poly I:C (TLR3 agonist) (Invivogen, SanDiego, USA)
RIBOXXOL (TLR3 agonist) (Riboxx, Radebeul, Germany)
MPL (TLR4 agonist) (Invivogen, SanDiego, USA)
Imiquimod (TLR7/8 agonist) (Invivogen, SanDiego, USA)
CpG (TLR9 agonist) (Invivogen, SanDiego, USA)
LAG-3Ig (Adipogen, SanDiego, USA)
P815 tumor cells were subcutaneously inoculated to DBA/2 mice in an amount of 5×10^5 cells per mouse to prepare cancer model mice. The day of inoculation was specified as Day 0. On Day 7, PIA CTL (2.5×10^5 cells per mouse) were intravenously injected. Day 8 and Day 15, an admixture of PIA peptide (50 μg per mouse) and an adjuvant in PBS was subcutaneously injected. Mice were divided into 9 groups each consisting of 4 or 5 mice and the following adjuvants were used respectively.
Group 1: PIA peptide alone (control)
(§1) Group 2: Poly I:C (50 μg/mouse)
Group 3: Poly I:C (50 μg/mouse)+LAG-3Ig (1 μg/mouse)
Group 4: No PIA peptide, Poly I:C (50 μg/mouse)+LAG-3Ig (1 μg/mouse) alone
Group 5: RIBOXXOL (100 μg/mouse) Group 6: RIBOXXOL (100 μg/mouse)+LAG-3Ig (1 μg/mouse)
Group 7: MPL (10 μg/mouse)+LAG-3Ig (1 μg/mouse) Group 8: Imiquimod (50 μg/mouse)+LAG-3Ig (1 μg/mouse)
Group 9: CpG (10 μg/mouse)+LAG-3Ig (1 μg/mouse)

[1] = system: P815 cells (DBA/2mouse-derived mouse mastocytoma); assay: Comparison of adjuvants in a cancer vaccine with PIA peptide, tumor size and survival; assay type: in vivo; details: DBA/2 mice with P815 tumor, 5 mice per group; PIA CTL i.v. Day 8; adjuvant admixed with PIA peptide 50 μg per mouse s.c. Day 9 and Day 16
Excerpt: In accordance with the protocol shown in FIG. 1, the effects of adjuvants in cancer vaccines using a cancer-antigen derived peptide were compared.
As cancer model mice, DBA/2 mice, to which P815 cells (DBA/2mouse-derived mouse mastocytoma) were grafted, were put in use.
As a cancer-antigen derived peptide, a peptide (hereinafter referred to as “PIA peptide”) consisting of a partial sequence of PIA protein was used, which is a tumor antigen of P815 tumor and known to be restrictively presented by an MHC H-2Ld. The amino acid sequence of PIA peptide are represented by LPYLGWLVF (SEQ. ID No: 40).
As PIA CTL, a T cell expressing a T cell receptor and recognizing PIA peptide was used. […] Based on the positive ratio, the number of PIA-CTL cells was determined and administered.
As the adjuvants, the following substances were used.
P815 tumor cells were subcutaneously inoculated to DBA/2 mice in an amount of 5×10^5 cells per mouse. The day of inoculation was specified as Day 0. On Day 8, PIA CTL (2.5×10^5 cells per mouse) were intravenously injected. On Day 9 and Day 16, an admixture of PIA peptide (50 μg per mouse) and an adjuvant in PBS was subcutaneously injected. Mice were divided into 9 groups each consisting of 5 mice and the following adjuvants were used, respectively.
Group 2: IFA (50 μL/mouse)
Group 3: PT (1×10^8/mouse)
Group 4: Poly I:C (50 μg/mouse) […]

B16-F10 melanoma cells = assay: Tumor growth inhibitory effect of immuno-adjuvant combination in B16-F10 melanoma inoculation model mice; assay type: in vivo, mouse; details: C57BL/6 mice with B16-F10 melanoma
Experimental: To C57BL/6 mice, B16-F10 melanoma cells (1×10^5 cells per mouse) were subcutaneously inoculated to prepare cancer model mice. The day of inoculation was specified as Day 0. On Day 5 and Day 12, twice in total, an admixture of gp100 peptide (50 μg per mouse) and an adjuvant in PBS was subcutaneously injected. The following adjuvants were used in respective mice groups.
Group 1: IFA (50 μL/mouse)
as §1
Group 3: LAG-3Ig (1 μg/mouse)
Group 4: LAG-3Ig (1 μg/mouse)+Poly I:C (50 μg/mouse)

| Substance | mice died up to Day 40 (P815 tumor cells; s.c. injection Day 8 and Day 15) | mice survived (P815 tumor cells; read against Day 40 of the preceding sentence, adjuvant admixed with PIA peptide (unless stated) s.c. Day 8 and Day 15) | number of mice survived until Day 70 without increasing tumor size [1] | effect of extending survival time (B16-F10 melanoma cells; Groups 2 and 3 compared to Group 1 (IFA), Group 4 compared to Groups 1, 2 and 3) | day on which five mice all died (B16-F10 melanoma cells; adjuvant admixed with gp100 peptide 50 μg s.c. Day 5 and Day 12) [days] |
| --- | --- | --- | --- | --- | --- |
| LPYLGWLVF [PIA peptide alone] | 5 out of 5 |  |  |  |  |
| Polyinosinic:polycytidylic acid [Poly I:C] |  | Four out of 5 | 1 | a significant effect of extending survival time was not observed | 35 |

Source: patent US11759518B2, “Medicine for treating cancer by administering a toll-like receptor agonist and LAG-3 IgG fusion protein” (NEC CORPORATION, priority 2016, dated 2023)
